Measurements reported in patent publication US11857544B2, “Composition or method including (t)ew-7197 for treating or preventing corneal endothelial diseases” (THE DOSHISHA, priority 2017, dated 2024).

How the values were obtained:
Caspase 3/7 = Caspase 3/7 activity (Caspase-Glo 3/7 Assay) in TGF-β-stimulated iFECD; type: cell-based, human
Protocol: were seeded on a 96-well plate at a ratio of 3×10^3 cells per well, and cultured until reaching confluence at 37° C. (5% CO2). DMEM+10% FBS+1% P/S was used as the medium. After 24 hours, the medium was removed. SB431542 (WAKO, 192-16541) and EW-7197 (Selleck Chemicals, 57530) were added so that the final concentration would each be 0.01, 0.1, 1, or 10 μM, and the medium was cultured for 24 hours. DMEM+2% FBS+1% P/S was used as the medium. After 24 hours, the medium was removed. 10 ng/ml of Transforming Growth Factor-132 Human recombinant (WAKO, 200-19911) and SB431542 were added so that the final concentration would be 0.01, 0.1, 1, and 10 μM, and the medium was cultured for 24 hours. DMEM+2% FBS+1% P/S was used as the medium. After 24 hours, the cell morphology was observed under a phase contrast microscope. After observation, Caspase 3/7 activity was measured using Caspase-Glo 3/7 Assay by the following procedures. The medium was discarded so that the amount would be 50 μl per well, and a Caspase Glo 3/7 Assay Reagent (mixture of Caspase-Glo 3/7 Assay Buffer and Caspase-Glo 3/7 Assay Substrate) (Promega, G8091) solution was added at 50 μl/well so that the ratio thereof to the medium would be 1:1. The process was hereinafter conducted without exposure to light. The mixture was mixed thoroughly using a shaker for 2 minutes at about 120 min^-1, and incubated for 40 minutes at room temperature. After the incubation, 80 μl was transferred to an Assay plate (Corning, 3912, Assay plate 96 well, white polystyrene), and absorbance was measured using a GloMax-Multi Detection System (Promega, E7051). A caspase inhibitor, i.e., 10μ MZ-VD-FMK (WAKO, 262-02061) was used as a positive control.

PARP = assay: Western blot for PARP in TGF-β-stimulated iFECD; type: cell-based, human; details: 0.1, 1, 10 μM
Protocol: […] were seeded on a 12-well plate at a ratio of 8×10^4 cells per well, and cultured at 37° C. (5% CO2) for 24 hours. DMEM+10% FBS+1% P/S was used as the medium. After 24 hours, the medium was removed. EW-7197 (Selleck Chemicals, 57530) was added so that the final concentration would be 0.1, 1, or 10 μM, and SB431542 (WAKO, 192-16541) was added so that the final concentration would be 10 μM, and the medium was cultured for 24 hours. DMEM+2% FBS+1% P/S was used as the medium. After 24 hours, the medium was removed and cultured […] so that the final concentration of 10 ng/ml of Transforming Growth Factor-132 Human recombinant (WAKO, 200-19911) and […] would be 0.1, 1, and 10 μM, and that of SB431542 would be 10 μM. DMEM+2% FBS+1% P/S was used as the medium. After 24 hours, the cell morphology and apoptosis were observed under a phase contrast microscope. To retrieve floating and dead cells, the medium was retrieved on ice, cells were washed twice with 1×PBS(-) and the solution thereof was also retrieved. The solution was centrifuged for 5 min at 4° C. and 800 g and the supernatant was discarded to obtain a precipitate. […] The detected band intensities were analyzed with Lumino Image Analyzer LAS-4000 mini (Fuji Film) and ImageQuantTM software (GE Healthcare).

Col8a2 knock-in mice = assay: Corneal endothelial cell density after eye drops in Col8a2 knock-in mice (Example 5, 8 weeks); type: in vivo; details: for Amount of change in the corneal endothelial cell density (ΔECD): 0.02% eye drop 4 times a day
Protocol: This Example evaluated the efficacy of an EW-7197 eye drop on Fuchs' endothelial corneal dystrophy using a Fuchs' endothelial corneal dystrophy animal model, Col8a2 knock-in mice. Col8a2 knock-in mice are established animal models of Fuchs' endothelial corneal dystrophy (reference: Jun et al., Hum Mol Genet. 2012 Jan. 15; 21(2): 384-93). 5 μL of 0.02% (about 0.5 mM) EW-7197 eye drop or a base agent (7% DMSO containing PBS) was administered as an eye drop to both eyes of 4-month-old alpha 2 collagen 8 gene (Col8a2) knock-in mice 4 times a day for 8 weeks. The corneal endothelial cell density was measured using a specular microscope KS3M (Konan Medical, Inc.) at before eye drops, and 2, 4, 6, and 8 weeks after eye drops. Mice were euthanized by intraperitoneally administering an excessive amount (200 mg/kg body weight or greater) of anesthetic injection Somnopentyl (Kyoritsu Seiyaku Corporation) 8 weeks after injection. After confirming cardiac arrest, both eye balls were harvested. The harvested eye balls were incised to prepare a corneal fragment. Immunostaining of type I collagen and fibronectin was performed as follows. Image-Pro (Nippon Roper K.K.) was used to analyze the area of type I collagen and fibronectin expression.

activity of Caspase 3/7 (Caspase 3/7; at 0.01 μM): inhibited significantly
Caspase 3/7 inhibitory effect compared to SB431542 (Caspase 3/7; at 0.1 μM): higher inhibitory effect
SMILES: Cc1cccc(-c2[nH]c(CNc3ccccc3F)nc2-c2ccc3ncnn3c2)n1 [EW-7197, N-((4-([1,2,4]triazolo[1,5-a]pyridin-6-yl)-5-(6-methylpyridin-2-yl)-1H-imidazol-2-yl)methyl)-2-fluoroaniline]
PARP (about 89 kDa) (PARP): suppressed to the same degree as the control group without stimulation with TGF-β or 10 μM of SB431542
decrease in the corneal endothelial cell density compared to the base agent group (Col8a2 knock-in mice; 0.02% eye drop): suppressed significantly
Amount of change in the corneal endothelial cell density (ΔECD) (Col8a2 knock-in mice; week 0 (before eye drop)): 0 cells/mm^2
Amount of change in the corneal endothelial cell density (ΔECD) (Col8a2 knock-in mice; week 4): −121.4 cells/mm^2
Amount of change in the corneal endothelial cell density (ΔECD) (Col8a2 knock-in mice; week 8): −284.5 cells/mm^2
